The source of these data is publication PMC4505863 (ACS Chemical Neuroscience, 2014).

Where two headings read alike, the source gives them in different places. Bounds are passed on as bounds.

In one experiment the test system is 5-HT2A. The conditions noted are these: cited from earlier work.
Experiment [1] concerns 5-HT2 type receptors in rat jugular vein. As to conditions: cited from earlier work.
Experiment [2] has as its target T1, 5-HT2A receptor (Homo sapiens, UniProt P28223). The conditions noted are these: cited from earlier work.
In experiment [3] the test system is 5-HT2 type receptors in rabbit aorta. The conditions noted are these: cited from earlier work.
The test system of experiment [4] is isolated guinea pig uterus. As to conditions: cited from earlier work.
A further experiment has as its system rat stomach fundus. The conditions noted are these: cited from earlier work.
The subject of experiment [5] is isolated guinea pig taenia cecum. The conditions noted are these: cited from earlier work.
Experiment [6] concerns the target T2, human 5-HT2C receptor (Homo sapiens, UniProt P28335).
T2 sequence (P28335 33-458): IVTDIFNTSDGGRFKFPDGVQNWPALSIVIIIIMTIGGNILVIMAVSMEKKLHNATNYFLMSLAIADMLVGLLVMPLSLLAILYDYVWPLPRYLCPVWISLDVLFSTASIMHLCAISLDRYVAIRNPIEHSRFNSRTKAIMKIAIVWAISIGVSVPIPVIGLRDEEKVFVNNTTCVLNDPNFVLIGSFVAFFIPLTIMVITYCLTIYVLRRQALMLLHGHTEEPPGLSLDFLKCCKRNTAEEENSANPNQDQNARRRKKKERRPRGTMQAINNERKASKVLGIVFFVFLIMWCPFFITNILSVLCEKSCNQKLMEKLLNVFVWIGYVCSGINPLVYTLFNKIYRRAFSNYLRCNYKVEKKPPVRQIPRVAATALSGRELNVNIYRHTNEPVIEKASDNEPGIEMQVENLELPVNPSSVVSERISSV
The experiment is described as follows: h5-HT2C affinity, antagonist radioligand [3H]mesulergine. It is filed as binding.

The next experiment deals with T3, h5-HT2C (Homo sapiens, UniProt P28335).
T3 sequence (P28335 33-458): T2 sequence (P28335 33-458)
Kind of experiment: Ca2+ mobilization assay. The class given is cell-based. The conditions noted are these: for Emax: HEK293, read-out: h5HT2C Emax; for EC50: h5HT2C EC50, Ca2+ mobilization. In general terms: Calcium assays in cells follow changes in intracellular calcium, usually with a dye or a luminescent sensor.

The next experiment has as its target 5-HT7 (Homo sapiens, UniProt P34969). The experiment is described as follows: PDSP screening affinity 5-HT7. It is filed as binding. The conditions noted are these: 5-HT7 affinity.
Experiment [7] concerns the target T1, 5-HT2A receptor. Kind of experiment: h5-HT2A affinity, agonist radioligand [125I]DOI. The class given is binding.
A further experiment concerns the target 5-ht5a (Homo sapiens, UniProt P47898). Kind of experiment: PDSP screening affinity 5-ht5a. The class given is binding. As to conditions: 5-ht5a affinity.
The target of experiment [8] is T2, human 5-HT2C receptor. Kind of experiment: h5-HT2C affinity, agonist radioligand [125I]DOI. It is filed as binding.
Another experiment concerns rat tail artery. The conditions noted are these: cited from earlier work.
In a further experiment the target is h5-HT2A (Homo sapiens, UniProt P28223). Kind of experiment: Ca2+ mobilization assay. It is filed as cell-based. As to conditions: for Emax: HEK293, read-out: h5-HT2A Emax, percentage of the maximum response to 5-HT.
Sequence of h5-HT2A (P28223 whole entry): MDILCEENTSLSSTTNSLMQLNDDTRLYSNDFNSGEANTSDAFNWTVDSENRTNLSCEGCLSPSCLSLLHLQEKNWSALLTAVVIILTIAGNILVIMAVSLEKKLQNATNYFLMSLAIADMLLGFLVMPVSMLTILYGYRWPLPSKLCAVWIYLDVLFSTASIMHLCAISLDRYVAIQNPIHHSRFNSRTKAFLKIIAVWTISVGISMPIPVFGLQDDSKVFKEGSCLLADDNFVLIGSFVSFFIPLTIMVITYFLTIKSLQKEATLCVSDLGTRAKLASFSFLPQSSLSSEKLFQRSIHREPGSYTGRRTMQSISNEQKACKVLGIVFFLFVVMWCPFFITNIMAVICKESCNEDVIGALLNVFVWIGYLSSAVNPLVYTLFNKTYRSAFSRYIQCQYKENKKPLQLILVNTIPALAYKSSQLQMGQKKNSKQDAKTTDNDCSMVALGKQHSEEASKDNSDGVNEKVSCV
Experiment [9] relates to Male C57BL/6J mice. The conditions noted are these: cited from earlier work.
Another experiment concerns the target T4, 5-HT3 (Homo sapiens, UniProt P46098).
T4 sequence (P46098 24-478): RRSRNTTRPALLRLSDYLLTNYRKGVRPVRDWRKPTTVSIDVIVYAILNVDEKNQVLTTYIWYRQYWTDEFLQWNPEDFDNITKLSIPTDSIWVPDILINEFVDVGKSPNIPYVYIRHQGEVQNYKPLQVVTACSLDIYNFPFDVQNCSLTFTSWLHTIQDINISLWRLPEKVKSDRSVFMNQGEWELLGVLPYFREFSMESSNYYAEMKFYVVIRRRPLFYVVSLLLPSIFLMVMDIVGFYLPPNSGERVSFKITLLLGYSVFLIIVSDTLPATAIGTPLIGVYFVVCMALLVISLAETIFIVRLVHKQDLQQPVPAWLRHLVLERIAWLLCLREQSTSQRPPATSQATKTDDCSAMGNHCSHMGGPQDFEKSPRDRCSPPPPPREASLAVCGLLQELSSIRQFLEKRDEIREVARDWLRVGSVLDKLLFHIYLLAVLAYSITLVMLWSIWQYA
The experiment is described as follows: PDSP screening affinity 5-HT3. It is filed as binding.

Another experiment has as its target 5-HT1D (Homo sapiens, UniProt P28221). The experiment is described as follows: PDSP screening affinity 5-HT1D. It is filed as binding.
In the next experiment the target is 5-HT6 (Homo sapiens, UniProt P50406). The experiment is described as follows: PDSP screening affinity 5-HT6. The class given is binding. The conditions noted are these: 5-HT6 affinity.
Sequence of 5-HT6 (P50406 whole entry): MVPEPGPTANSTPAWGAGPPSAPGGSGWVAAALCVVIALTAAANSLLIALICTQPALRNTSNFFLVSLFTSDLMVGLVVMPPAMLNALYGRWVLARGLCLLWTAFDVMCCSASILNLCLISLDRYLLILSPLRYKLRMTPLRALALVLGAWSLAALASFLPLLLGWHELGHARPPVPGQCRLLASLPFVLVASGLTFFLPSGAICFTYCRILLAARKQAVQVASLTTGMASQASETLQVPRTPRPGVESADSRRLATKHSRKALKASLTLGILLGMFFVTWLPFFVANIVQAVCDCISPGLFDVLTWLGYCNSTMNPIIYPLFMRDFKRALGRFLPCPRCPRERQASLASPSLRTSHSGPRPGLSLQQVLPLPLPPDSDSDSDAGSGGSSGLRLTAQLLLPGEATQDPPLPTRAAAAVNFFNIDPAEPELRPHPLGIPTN
The target of the next experiment is T5, r5-HT2C (Rattus norvegicus, UniProt P08909).
T5 sequence (P08909 33-460): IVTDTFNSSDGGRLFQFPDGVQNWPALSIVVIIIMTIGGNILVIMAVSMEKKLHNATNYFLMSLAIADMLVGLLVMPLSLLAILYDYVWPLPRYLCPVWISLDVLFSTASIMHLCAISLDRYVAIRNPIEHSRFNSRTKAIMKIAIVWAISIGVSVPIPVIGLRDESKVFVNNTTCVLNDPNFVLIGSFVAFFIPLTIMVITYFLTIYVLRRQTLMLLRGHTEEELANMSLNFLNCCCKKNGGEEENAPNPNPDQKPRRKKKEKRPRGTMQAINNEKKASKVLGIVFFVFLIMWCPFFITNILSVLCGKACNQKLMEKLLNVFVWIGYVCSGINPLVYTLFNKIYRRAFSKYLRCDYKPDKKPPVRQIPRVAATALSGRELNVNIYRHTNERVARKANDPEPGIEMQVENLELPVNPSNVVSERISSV
The experiment is described as follows: Ca2+ mobilization assay. It is filed as cell-based. As to conditions: for EC50: r5-HT2C EC50, Ca2+ mobilization; for Emax: read-out: r5-HT2C Emax.

A further experiment deals with 5-HT1B (Homo sapiens, UniProt P28222). The experiment is described as follows: PDSP screening affinity 5-HT1B. It is filed as binding.
Sequence of 5-HT1B (P28222 whole entry): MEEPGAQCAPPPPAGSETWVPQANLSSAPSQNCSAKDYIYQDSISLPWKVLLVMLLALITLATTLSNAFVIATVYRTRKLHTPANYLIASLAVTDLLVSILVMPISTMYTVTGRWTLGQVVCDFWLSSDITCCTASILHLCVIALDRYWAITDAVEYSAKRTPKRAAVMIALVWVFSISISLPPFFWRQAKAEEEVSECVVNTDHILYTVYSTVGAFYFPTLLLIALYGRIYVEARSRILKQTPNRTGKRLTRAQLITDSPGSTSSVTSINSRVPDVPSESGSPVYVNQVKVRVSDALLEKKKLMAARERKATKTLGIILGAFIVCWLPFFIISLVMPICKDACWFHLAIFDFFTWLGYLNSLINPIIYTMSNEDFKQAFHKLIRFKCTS
Experiment [10] addresses T1, 5-HT2A receptor. Kind of experiment: h5-HT2A affinity, antagonist radioligand [3H]ketanserin. It is filed as binding.
The target in another experiment is r5-HT2A (Rattus norvegicus, UniProt P14842). Kind of experiment: Ca2+ mobilization assay. The class given is cell-based. As to conditions: for EC50: r5-HT2A EC50, Ca2+ mobilization.
Sequence of r5-HT2A (P14842 whole entry): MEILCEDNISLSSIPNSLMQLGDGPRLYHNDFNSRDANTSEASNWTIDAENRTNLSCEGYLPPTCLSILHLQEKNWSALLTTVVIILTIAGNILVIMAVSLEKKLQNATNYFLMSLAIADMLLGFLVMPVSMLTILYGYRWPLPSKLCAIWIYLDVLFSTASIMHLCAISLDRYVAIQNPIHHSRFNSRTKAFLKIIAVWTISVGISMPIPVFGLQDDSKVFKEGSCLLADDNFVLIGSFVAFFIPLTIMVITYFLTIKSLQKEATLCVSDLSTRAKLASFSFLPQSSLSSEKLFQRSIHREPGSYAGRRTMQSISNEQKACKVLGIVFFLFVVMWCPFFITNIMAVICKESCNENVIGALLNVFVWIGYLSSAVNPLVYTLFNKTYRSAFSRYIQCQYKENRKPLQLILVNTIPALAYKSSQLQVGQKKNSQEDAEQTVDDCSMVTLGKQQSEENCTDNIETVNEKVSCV
The next experiment deals with T6, 5-HT1A (Homo sapiens, UniProt P08908).
T6 sequence (P08908 1-422): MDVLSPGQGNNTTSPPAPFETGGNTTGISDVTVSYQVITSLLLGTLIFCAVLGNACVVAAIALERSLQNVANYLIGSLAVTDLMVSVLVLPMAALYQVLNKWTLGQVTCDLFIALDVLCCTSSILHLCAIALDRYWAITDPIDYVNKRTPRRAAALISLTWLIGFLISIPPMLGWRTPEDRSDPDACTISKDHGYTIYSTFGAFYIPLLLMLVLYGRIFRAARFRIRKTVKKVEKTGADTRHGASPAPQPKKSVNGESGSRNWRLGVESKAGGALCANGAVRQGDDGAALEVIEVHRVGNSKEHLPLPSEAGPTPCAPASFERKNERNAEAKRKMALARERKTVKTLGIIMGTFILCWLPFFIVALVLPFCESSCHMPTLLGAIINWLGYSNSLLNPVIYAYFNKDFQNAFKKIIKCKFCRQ
The experiment is described as follows: PDSP screening affinity 5-HT1A. It is filed as binding. As to conditions: 5-HT1A affinity.

In another experiment the target is 5-HT2B (Homo sapiens, UniProt P41595). The experiment is described as follows: PDSP screening affinity 5-HT2B. The class given is binding.
Sequence of 5-HT2B (P41595 whole entry): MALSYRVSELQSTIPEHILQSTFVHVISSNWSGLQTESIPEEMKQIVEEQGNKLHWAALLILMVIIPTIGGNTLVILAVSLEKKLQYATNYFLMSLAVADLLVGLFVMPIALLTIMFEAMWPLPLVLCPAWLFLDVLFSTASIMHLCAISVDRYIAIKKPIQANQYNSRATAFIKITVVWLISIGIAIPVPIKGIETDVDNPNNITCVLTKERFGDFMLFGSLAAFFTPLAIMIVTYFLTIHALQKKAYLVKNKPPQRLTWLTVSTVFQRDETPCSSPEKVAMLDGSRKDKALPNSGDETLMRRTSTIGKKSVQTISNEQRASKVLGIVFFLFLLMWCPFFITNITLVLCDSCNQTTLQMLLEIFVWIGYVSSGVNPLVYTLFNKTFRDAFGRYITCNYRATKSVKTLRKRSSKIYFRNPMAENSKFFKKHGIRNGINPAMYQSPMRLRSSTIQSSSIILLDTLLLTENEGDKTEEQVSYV
The target in another experiment is h5-HT2B (Homo sapiens, UniProt P41595). The experiment is described as follows: Ca2+ mobilization assay. The conditions noted are these: for Emax: HEK293, read-out: h5-HT2B Emax. The class given is cell-based.
Sequence of h5-HT2B (P41595 whole entry): as above
In the next experiment the target is 5-ht1e (Homo sapiens, UniProt P28566). Kind of experiment: PDSP screening affinity 5-ht1e. The class given is binding.
Sequence of 5-ht1e (P28566 whole entry): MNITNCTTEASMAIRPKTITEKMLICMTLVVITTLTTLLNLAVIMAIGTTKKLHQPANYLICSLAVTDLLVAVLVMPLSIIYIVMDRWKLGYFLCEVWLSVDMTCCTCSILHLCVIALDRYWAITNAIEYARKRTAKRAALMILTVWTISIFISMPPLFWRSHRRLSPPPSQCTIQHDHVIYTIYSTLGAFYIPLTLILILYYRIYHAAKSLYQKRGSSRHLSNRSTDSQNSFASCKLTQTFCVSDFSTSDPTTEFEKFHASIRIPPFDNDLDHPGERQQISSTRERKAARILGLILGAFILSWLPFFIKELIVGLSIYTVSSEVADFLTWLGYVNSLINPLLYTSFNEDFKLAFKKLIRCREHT
For experiment [11], the target named is T1, 5-HT2A receptor. The conditions noted are these: authentic 4-bromo compound; cited from earlier work.
Experiment [12] concerns Male C57BL/6J mice. The experiment is described as follows: Mouse head twitch response. As to conditions: SC, doses up to 30 mg/kg.

T1 sequence (P28223 whole entry): as the sequence (P28223 whole entry) above
Sequence of 5-HT1D (P28221 whole entry): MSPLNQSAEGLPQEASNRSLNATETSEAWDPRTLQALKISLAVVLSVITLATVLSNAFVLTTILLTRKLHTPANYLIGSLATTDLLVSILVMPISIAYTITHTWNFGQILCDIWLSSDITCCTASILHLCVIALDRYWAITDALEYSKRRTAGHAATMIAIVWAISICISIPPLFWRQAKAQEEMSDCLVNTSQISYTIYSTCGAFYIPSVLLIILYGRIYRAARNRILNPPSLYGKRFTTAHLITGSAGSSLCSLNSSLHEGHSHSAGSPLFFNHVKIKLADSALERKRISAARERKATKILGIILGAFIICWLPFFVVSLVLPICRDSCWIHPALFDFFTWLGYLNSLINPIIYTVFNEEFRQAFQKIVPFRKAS
Sequence of 5-HT7 (P34969 whole entry): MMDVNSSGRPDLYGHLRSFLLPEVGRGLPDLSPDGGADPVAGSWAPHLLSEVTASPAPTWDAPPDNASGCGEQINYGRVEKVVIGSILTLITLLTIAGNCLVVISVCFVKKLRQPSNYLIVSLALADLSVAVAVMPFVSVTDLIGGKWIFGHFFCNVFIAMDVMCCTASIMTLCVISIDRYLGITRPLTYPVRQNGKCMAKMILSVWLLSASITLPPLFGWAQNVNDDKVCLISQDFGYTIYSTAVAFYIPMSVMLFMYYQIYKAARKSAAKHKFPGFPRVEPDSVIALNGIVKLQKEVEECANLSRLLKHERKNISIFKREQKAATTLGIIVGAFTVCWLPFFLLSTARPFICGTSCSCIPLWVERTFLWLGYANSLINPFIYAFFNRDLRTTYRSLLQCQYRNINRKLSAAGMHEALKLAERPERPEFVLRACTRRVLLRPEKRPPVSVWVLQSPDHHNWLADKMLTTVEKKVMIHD
Sequence of 5-ht5a (P47898 whole entry): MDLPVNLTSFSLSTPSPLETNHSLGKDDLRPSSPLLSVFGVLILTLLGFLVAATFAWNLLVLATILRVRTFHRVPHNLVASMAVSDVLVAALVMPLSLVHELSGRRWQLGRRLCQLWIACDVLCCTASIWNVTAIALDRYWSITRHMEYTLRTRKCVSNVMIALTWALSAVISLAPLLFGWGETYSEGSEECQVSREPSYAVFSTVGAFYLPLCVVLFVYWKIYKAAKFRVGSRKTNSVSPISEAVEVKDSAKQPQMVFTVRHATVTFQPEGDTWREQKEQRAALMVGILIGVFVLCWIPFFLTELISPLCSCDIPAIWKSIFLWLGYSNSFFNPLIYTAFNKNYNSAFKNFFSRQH

For `COc1cc(CCNCc2ccccc2O)c(OC)cc1C#N` [Compound 25CN-NBOH, N-(2-hydroxybenzyl)-2,5-dimethoxy-4-cyanophenethylamine], the “selectivity for 5-HT2A over 5-HT2C” value in the experiment on 5-HT2A was 100 fold.
In the case of `COc1ccc2[nH]cc(CCNCc3ccccc3)c2c1` [N-benzyl-5-methoxytryptamine], the “agonist activity at 5-HT2 type receptors” value in experiment [1] and in experiment [3] was “weak partial agonist activity” each time. Moreover, the “affinity relative to the parent primary amine” value on 5-HT2A receptor [2] (receptor not given) is “essentially no effect on affinity”. The “effect on serotonin-induced contraction” value (in experiment [4]; in the experiment on rat stomach fundus; in [5]) was “antagonist” each time.
The term Ki denotes the dissociation constant of the complex between target and ligand, obtained from inhibition or displacement. Lower therefore signals a stronger hold on the target. As a reminder, the Emax is the greatest response seen or fitted, relative to the assay's reference. In general, EC50 refers to the midpoint of the concentration-response curve. A higher EC50 goes with weaker potency. Take `COc1cc(CCNCc2ccccc2OC)c(OC)cc1I` [Compound 1, N-(2-Methoxybenzyl)-2-(4-iodo-2,5-dimethoxyphenyl)ethan-1-amine]: the Ki on human 5-HT2C receptor [6] is 0.69 nM; at 5-HT7, 1540 nM; at 5-HT2A receptor [7], 0.158 nM; on 5-ht5a, 2790 nM; at human 5-HT2C receptor [8], 0.5 nM; at 5-HT3, greater than 10000 nM. For the same molecule, the Ki at 5-HT1D is 533 nM; on 5-HT6, 32 nM; at 5-HT1B (5-HT1B affinity) it was 5890 nM; on 5-HT2A receptor [10] it was 0.52 nM; at 5-HT1A, 1030 nM; at 5-HT2B (5-HT2B pKi ± SEM) it was 1.38 nM. For the same molecule, on 5-ht1e, the Ki was greater than 10000 nM. For the same molecule, the Emax is 92% at h5-HT2C, 86.4 ± 1.4% on h5-HT2A, 104 ± 2% at r5-HT2C and 65 ± 2% on h5-HT2B. Besides, the EC50 at h5-HT2C was 41.7 nM; on h5-HT2A it was 4.2 nM; on r5-HT2C, 95 nM; on r5-HT2A, 11 nM; on h5-HT2B (h5-HT2B pEC50 ± SEM, Ca2+ mobilization, NA = not active, Emax ≤ 15%), 15.5 nM. For the same molecule, the “h5-HT2A Ki” value at 5-HT2A receptor [7] ([125I]DOI) is “subnanomolar affinity”. Further, the “h5-HT2C Ki” value at human 5-HT2C receptor [8] ([125I]DOI) is listed as “subnanomolar affinity”. Further, the “pEC50, rat tail artery” value in the experiment with rat tail artery (agonist potency) is reported as 10.09. Further, in the experiment on rat tail artery, the “Emax, rat tail artery” value is 30%. Further, in the experiment with Male C57BL/6J mice [9] (HTR counts), the max counts is listed as 102.6. In addition, the “activity in the HTR assay (active / inactive)” value in the experiment on Male C57BL/6J mice [9] is on record as “active”. The “magnitude of peak effect × vehicle” value with Male C57BL/6J mice [9] (mouse head twitch) was 16.0 × vehicle. In addition, the maximally effective dose in the experiment on Male C57BL/6J mice [9] (mouse head twitch) is on record as 1 mg/kg. The “ED50 mg/kg (95% CI), mouse head twitch” value in the experiment on Male C57BL/6J mice [9] (test duration 30 min, ref 31 (Halberstadt and Geyer)) is 0.078 (0.055–0.111) mg/kg. In addition, the “r5-HT2A Emax” value at r5-HT2A (percentage of the maximum response to 5-HT) was determined as 79.4 ± 1.1%.
As for `COc1ccc2[nH]cc(CCNCc3ccc(Br)cc3)c2c1` [Compound 5f, N-(4-Bromobenzyl)-2-(5-methoxy-1H-indol-3-yl)ethan-1-amine], the Ki at human 5-HT2C receptor [6] was 251 nM; on 5-HT7, 358 nM; at 5-HT2A receptor [7], 11.2 nM; on 5-ht5a, 1030 nM; on human 5-HT2C receptor [8] it was 28.8 nM; at 5-HT3, greater than 10000 nM. Also, the Ki at 5-HT1D was 271 nM; at 5-HT6, 566 nM; at 5-HT1B (5-HT1B affinity), 4370 nM; at 5-HT1B (5-HT1B pKi ± SEM), 4470 nM; on 5-HT2A receptor [10], 427 nM; on 5-HT1A, 78 nM. In addition, the Ki at 5-HT2B (5-HT2B affinity) was 150 nM; on 5-HT2B (5-HT2B pKi ± SEM), 148 nM; at 5-ht1e, greater than 10000 nM. For the same molecule, the Emax at h5-HT2C came to 83 ± 7%; on h5-HT2A, 90.3 ± 1.2%; on r5-HT2C, 108 ± 2%; at r5-HT2A (read-out: r5-HT2A Emax, percentage of the maximum response to 5-HT) it was 77.6 ± 2.4%; on h5-HT2B, 90 ± 2%. Also, the EC50 on h5-HT2C was 529 nM; on h5-HT2A, 430 nM; at r5-HT2C, 204 nM; on r5-HT2A it was 1500 nM; on h5-HT2B (h5-HT2B EC50, Ca2+ mobilization), 290 nM. Also, the “selectivity for 5-HT2A over 5-HT2C receptors” value on 5-HT2A receptor [2] (5-HT2A agonist radioligand, 5-HT2C antagonist radioligand) was 1000 fold. Moreover, on 5-HT2A receptor [11], the “affinity for the 5-HT2A receptor” value is “relatively low affinity”. In the experiment on Male C57BL/6J mice [12], the “activity in the HTR assay (active / inactive)” value is “None of the phenethylamines or tryptamines with 4-substituted N-benzyl groups, 4b, 4e, 5c, or 5f, was active”.
